Laboratory results: EP4752149A1, “OXYGEN-CONTAINING FUSED TRICYCLIC DERIVATIVE, AND PREPARATION METHOD THEREFOR AND USE THEREOF” (Tuojie Biotech (Shanghai) Co., Ltd., priority 2023, dated 2025)

How the values were obtained:
[1] = tested on: Human breast cancer cells (MDA-MB-231); assay: Inhibitory activity against human breast cancer cells (MDA-MB-231), CTG cell viability; format: cell-based; settings: Homo sapiens, 168 h, 7 days with compound
Method: Human breast cancer cells (MDA-MB-231) were cultured using a DMEM culture medium containing 10% FBS in a cell incubator (37 °C, 5% CO2). On day one, the cells were plated in a 384-well plate at a cell concentration of 600 cells/well and cultured overnight in an incubator. On day two, the cells were treated with compounds. The highest compound concentration was 10 µM and was diluted 3-fold to obtain 9 concentrations, and the final concentration of DMSO was 0.2%. After the cells were cultured in the incubator for another 7 days, the cell viability was tested using a CTG Cell Viability Detection Reagent; the testing method was consistent with the method provided by the kit. Data were processed using XLFit, and IC50 was calculated. [formula] X: the logarithm of the compound concentration; Y: % inhibition. Table 8. The IC50 (nM) of a compound of the present disclosure against MDA-MB-231

CDK2/CycE1 = biological target: T1, CDK2/CycE1 (Homo sapiens, UniProt P24941); assay: Activity against cyclin-dependent kinase CDK2/CycE1 (Caliper EZ Reader mobility shift); format: biochemical; settings: 1 h at room temperature; highest concentration 1 µM
T1 construct: purchased Carna 04-165
Method: The test compounds (the highest concentration was 1 µM) were added using Echo 650 and serially diluted 3-fold to obtain a total of 9 concentration points. The assay plate was sealed and centrifuged at 1000 g for 1 min. 2.5× enzymes were prepared in a 1× kinase buffer (50 mM HEPES, pH 7.5, 0.0015% Brij-35, […]), and the 2.5× enzymes (10 µL) were added to the 384-well assay plate. The plate was centrifuged at 1000 g for 30 s and left to stand at room temperature for 10 min. 2.5× substrate and ATP mixtures were prepared in the 1× kinase buffer, and the 2.5× substrate and ATP mixtures (10 µL) were added to start reactions. The assay plate was centrifuged at 1000 g for 30 s, sealed, and incubated at room temperature for 1 h. 25 µL of a stop solution reagent (100 mM HEPES, pH 7.5, 0.015% Brij-35, 0.2% Coating Reagent #3, 50 mM EDTA) was added.
Conversion rate data were read on a CaliperEZ Reader. The conversion rate data were copied from the CaliperEZ Reader. The conversion rates were converted to inhibition rate data. Inhibition% = (max−conversion)/(max−min) × 100, [formula] where "min" is the reading of a control sample well to which no enzyme was added for reaction; "max" is the reading of a control well to which DMSO was added.
IC50 values were obtained by fitting using XLFit excel add-in version 5.4.0.8. Y = Bottom + (Top−Bottom)/(1+((IC50/X))^(∧)HillSlope). [formula] Table 6. […]

[2] = tested on: Triple-negative breast cancer cells (HCC1806); assay: Inhibitory activity against triple-negative breast cancer cells (HCC1806), CTG cell viability; format: cell-based; settings: Homo sapiens, 168 h, 7 days with compound
Method: Triple-negative breast cancer cells (HCC1806, Nanjing Cobioer Biosciences Co., Ltd.) were cultured using an RPMI 1640 culture medium containing 10% FBS in a cell incubator (37 °C, 5% CO2). On day one, the cells were plated in a 384-well plate at a cell concentration of 200 cells/well and cultured overnight in an incubator. On day two, the cells were treated with compounds. The highest compound concentration was 10 µM and was diluted 3-fold to obtain 9 concentrations, and the final concentration of DMSO was 0.2%. After the cells were cultured in the incubator for another 7 days, the cell viability was tested using a CTG Cell Viability Detection Reagent (MCE); the testing method was consistent with the method provided by the kit. Data were processed using XLfit, and IC50 was calculated. [formula] X: the logarithm of the compound concentration; Y: inhibition%. Table 4. The IC50 (nM) of compounds of the present disclosure against HCC1806

IC50 [1]: 0.117 µM
IC50 (CDK2/CycE1): 0.0098 µM
IC50 [2]: 0.15 µM
Structure (SMILES): C[C@H]1COc2c(-c3nc(Nc4ccc(N5CCOCC5=O)cc4F)ncc3Cl)cc(F)c3nc(C(C)(C)O)n1c23 [Example 1, (S)-4-(4-((5-Chloro-4-(8-fluoro-2-(2-hydroxypropan-2-yl)-3-methyl-3,4-dihydro-5-oxa-1,2a-diazaacenaphthylen-6-yl)pyrimidin-2-yl)amino)-3-fluorophenyl)morpholin-3-one]
